Test [1] deals with perfused dog hind limb. As to the kind of experiment: Peripheral vasodilator activity, perfused dog hind limb (anesthetized dog). The format is in vivo. The protocol: Test Method. Mongrol dogs of either sex weighing between 11 and 16 kg., each, were anesthetized with pentobarbital (30 mg./kg.) administered intravenously. The left brachial vein was cannulated and pentobarbital infused continuously throughout the experiment at a rate of 5 mg./kg./hr. A tracheotomy was performed and dogs ventilated mechanically with room air at a rate of 18 strokes/min. and a volume equivalent to 20 ml./kg. The vagi were sectioned bilaterally in the mid-cervical region of the neck. The right brachial vein and artery were cannulated to inject drugs and to monitor blood pressure via a Statham pressure transducer, respectively. All measurements were recorded on a Beckman-Offner dynograph. The abdominal aorta was exposed through midline incision and a loose ligature placed around the aorta distal to the left renal artery. The right (donor) and left (recipient) femoral arteries were exposed for cannulation and subsequent hind-limb perfursion. Following intravenous administration of heparin (5 mg/kg.) and gallamine triethiodide (2 mg./kg.), the right femoral artery was cannulated and the tip of the catheter advanced into the abdominal aorta to the level of the renal arteries. The left femoral artery was cannulated and the hind-limb perfused using a Harvard Perfusion pump. The ligature previously placed around the aorta was subsequently tied to minimize collateral circulation. […] Perfusion pressure, measured at a point distal to the perfusion pump was set equal to 150 mm Hg. by adjusting pump speed. Blood flow to the limb was determined volumetrically at the conclusion of the experiment. The test agent was administered by infusion at a rate of from 0.1-1.0 mg./min. for a six-minute period and maximum reduction in pressure determined. One to three animals were employed per test agent. […] This protocol precludes effects resulting from animal variation thus permitting a direct side-by-side comparison of vasodilating activity.

Test [2] relates to human platelet-rich plasma. As to the kind of experiment: Inhibition of platelet aggregation in vitro (ADP or collagen induced; antithrombogenic activity). The format is cell-based. The settings on record: for ED50 ADP (inhibition of platelet aggregation): aggregation induced by 1 mcg. ADP; for ED50 Coll (inhibition of platelet aggregation): minimal amount of collagen producing maximal aggregation. The protocol: Test Method. A method similar to that described in Born, Nature 194, 927 (1962) and O'Brien, J. Clinical Pathology 15, 446 (1962). This test comprises a nephelometric method in which the change in turbidity of a specimen of human platelet-rich plasma is measured on causation of platelet aggregation by addition of adenosine diphosphate (ADP) or collagen as the thrombogenic inducing agent. An increase in transmittance light occurs when the thrombogenic agent is added to the specimen of platelet-rich plasm due to clumping of platelets. Efficacy of the test compound is determined by ability to prevent the clumping and concommitant increase in transmittance. Various concentrations of the test agent are tested and that concentration causing a 50% reduction in the thrombogenic response is determined from a concentration-response curve.

Test [3] deals with T1, adrenergic beta-receptor (Cavia porcellus, UniProt Q8K4Z4).
T1 construct: Tracheas excised from adult guinea pigs; from tissue; host or cells: guinea pig trachea (spirally cut segments)
As to the kind of experiment: Beta-adrenergic blocking activity in the isolated guinea pig trachea (isoproterenol). In kind it is cell-based. As to conditions: potency relative to propanol (equals one); isoproterenol 0.1 mcg./ml. The protocol:
Test Method. […] The lower end of a tracheal segment is fixed to a stationary glass rod and the upper end is threaded to an isometric tension transducer. Changes in the spontaneous tonus of the tracheal smooth muscle are monitored via the transducer and recorded continuously on an electronic recorder. Adrenergic beta-receptor blocking activity is determined by the ability of a test agent to inhibit the response of the isolated tissue to the adrenergic beta-stimulant "isoproterenol" at a concentration of 0.1 mcg./ml. bath fluid. The tissues are exposed to the test agent solution for a 15-min. interval prior to the addition of isoproterenol to the bath fluid. Beta-receptor blocking potency of a test drug is ascertained from concentration-response relationships wherein the response is expressed as a percent inhibition of isoproterenol-induced tissue response. […] Each drug solution is added to the tissue bathing medium at a constant volume of 0.2 ml./ml. of bath fluid and only one test drug concentration is employed for an individual tissue segment. Potency of the test agent relative to that of the beta-adrenergic blocking agent "propanolol" as a reference standard is assessed by comparing the IC50 values.

For test [4], the system named is rabbit thoracic aorta. The test is described as follows: Isolated rabbit thoracic aorta, antispasmodic activity vs. potassium chloride. The format is cell-based, rabbit (New Zealand White). As to conditions: potency relative to papaverine (equals one), from pA2 vs. potassium chloride. The protocol: (§1) Test Method. Antispasmodic activity was assessed in vitro by determining the effect of the test substance on induced contraction of arterial smooth muscle as follows. Adult, male, New Zealand White rabbits (body weight 2.5-4 kg.) were used. Each rabbit was killed by i.v. air injection. The thorax was opened and the descending thoracic aorta removed and placed in Kreb's-bicarbonate solution. Extraneous tissue was removed and the aorta was cut spirally along its entire length. Four spiral segments, each approximately 2 cm. in length (unstretched), were obtained from each thoracic aorta. […] The bath medium surrounding the aortic spiral (Kreb's-bicarbonate solution) was maintained at 37.5°C. and constantly aerated with 95% O2 :5% CO2. Activity of the aortic smooth muscle was recorded on an electronic polygraph via its connection to the tension transducer. After an equilibration period of 60 min., a cumulative dose-response curve was obtained to an agonist (e.g. potassium chloride or norepinephrine) and the tissue then washed. Seventy-five min. later, a second cumulative dose-response curve to the agonist was obtained and the tissue washed again. Sixty min. later, a test drug solution was added to the tissue bath fluid and, after 15 min., drug exposure and, without washing, a third and final agonist-response curve was obtained. All additions to the bath fluid were 0.1 ml. volumes of aqueous solutions.

In test [5] the test system is platelet survival. The test is described as follows: Platelet survival time in rats with intra-arterial catheters. In kind it is in vivo, rat. The source says: (a) Rats with intra-arterial catheters have periods of shortened platelet survival time. This shortened survival time is normalized with the compound of Example 2.
Test [6] deals with mesenteric arteries. As to the kind of experiment: Basal tone of mesenteric arteries of dogs. Also noted: species or system dog. An excerpt: (§2) (b) The compound of Example 2 elevated basal tone of mesenteric arteries of dogs and rabbits. This effect is considered valuable in the treatment of peripheral and cerebral vascular diseases.
Test [7] relates to mesenteric arteries. As to the kind of experiment: Basal tone of mesenteric arteries of rabbits. Also noted: species or system rabbit.
Text: as §2

The subject of test [8] is red blood cell. The test is described as follows: Red blood cell rigidity via chromium^51 labeling technique. The format is cell-based.
In test [9] the test system is rabbit eye. The test is described as follows: Local anesthetic activity, topical application to the rabbit eye. The format is in vivo.
Test [10] relates to guinea pig skin. As to the kind of experiment: Local anesthetic activity, intradermal infiltration of guinea pig skin. The format is in vivo.
In test [11] the test system is alpha-adrenergic. The test is described as follows: Isolated rabbit thoracic aorta, antispasmodic (anti-alpha-adrenergic) activity vs. norepinephrine. In kind it is cell-based, rabbit (New Zealand White). As to conditions: norepinephrine as agonist. The protocol:
as §1, with “solutions. […] Selective activity against norepinephrine-induced spasms is indicative of alpha-adrenergic blocking (i.e. antispasmodic) activity. […] Phentolamine is an alpha-adrenergic blocking agent and a standard reference in the art. […] This experiment illustrates that the instant compounds are non-anti-alpha-adrenergic antispasmodic agents in that they have a substantial direct smooth muscle relaxant effect (as shown in Example 34) relatively uncomplicated by any significant selective alpha-adrenergic blocking effect.” for “solutions.”

[12] abbreviates: 0.3 mg./min., side-by-side comparison.

Where only a bound is given, the exact number is not on record here.

T1 sequence (Q8K4Z4 whole entry): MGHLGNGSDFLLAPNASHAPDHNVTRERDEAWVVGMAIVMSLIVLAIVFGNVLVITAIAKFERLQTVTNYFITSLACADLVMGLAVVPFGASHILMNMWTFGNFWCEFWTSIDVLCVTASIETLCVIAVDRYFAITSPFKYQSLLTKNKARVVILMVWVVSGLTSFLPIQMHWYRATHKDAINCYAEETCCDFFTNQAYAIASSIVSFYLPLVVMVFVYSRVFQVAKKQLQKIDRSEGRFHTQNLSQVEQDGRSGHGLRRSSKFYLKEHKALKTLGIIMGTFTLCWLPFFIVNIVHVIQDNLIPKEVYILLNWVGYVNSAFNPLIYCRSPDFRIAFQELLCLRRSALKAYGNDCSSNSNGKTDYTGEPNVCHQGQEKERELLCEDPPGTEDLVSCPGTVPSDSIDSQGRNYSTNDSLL

`CCCCCCCCNCC(O)COc1ccc(SC(C)C)cc1.Cl` (stereo not shown) [Example 2, 1-[4-[(1-Methylethyl)thio]phenoxy]-3-(octylamino)-2-propanol Hydrochloride]: the “vasodilator effect relative to test agent A” value in [1] (setting [12]) is “approximately 3.2 times”. The “vasodilator effect relative to test agent B” value in test [1] (setting [12]) is recorded as about 21 times. Further, the “Pressure Decrease” value in [1] (infusion rate 0.3 mg./min.) is listed as -44 Millimeters of mercury; in test [1] (infusion rate 0.3 mg./min., side-by-side comparison in same animals) it was -63 Millimeters of mercury; in test [1] (infusion rate 1.0 mg./min.), -99 Millimeters of mercury. Besides, the “ED50 ADP (inhibition of platelet aggregation)” value in [2] is reported as 56 Microgram/0.5 ml. plateletrich human plasma. Also, in [2], the “ED50 Coll (inhibition of platelet aggregation)” value is 31 Microgram/0.5 ml. plateletrich human plasma. In addition, the “Beta-Adrenergic Blocking Potency” value in test [3] was under 0.001. The “Antispasmodic Potency” value in test [4] was 0.6. For the same molecule, the “shortened platelet survival time” value in [5] is recorded as “normalized”. For the same molecule, the “basal tone of mesenteric arteries” value in [6] and in test [7] was “elevated” each time. Moreover, the “red blood cell rigidity” value in [8] is “decreased”. Further, the “local anesthetic activity vs. lidocaine” value in test [9] is “greater than”; in test [10] it was “as great as”.
Regarding `CCCCCCCCNCC(O)COc1ccccc1SC.Cl` (stereo not shown) [Example 8, 1-[2-(Methylthio)phenoxy]-3-(octylamino)-2-propanol Hydrochloride], in [1] (infusion rate 0.3 mg./min.), the “Pressure Decrease” value is -15 Millimeters of mercury. In addition, the “Pressure Decrease” value in test [1] (infusion rate 1.0 mg./min.) was -64 Millimeters of mercury. In addition, in test [2], the “ED50 ADP (inhibition of platelet aggregation)” value is 65 Microgram/0.5 ml. plateletrich human plasma and the “ED50 Coll (inhibition of platelet aggregation)” value is reported as 32 Microgram/0.5 ml. plateletrich human plasma. Further, the “Beta-Adrenergic Blocking Potency” value in test [3] was found to be 0.004. Also, in test [4], the “Antispasmodic Potency” value is listed as 2.6. For the same molecule, the “anti-alpha-adrenergic activity relative to phentolamine” value in [11] is reported as 1-2%.

These data come from patent publication US4243681A, “Alkylthiophenoxypropanolamines and pharmaceutical compositions and uses thereof” (priority 1979, dated 1981).
